# In PMC6672714 (Frontiers in Physiology, 2019):
# Entries after “also recorded” stand apart in the source; their conditions may differ. No end group written: not given here.
# What was measured:
# [1] = tested on: cultured chick pituitary cells (GnRH1-induced CART mRNA); type: cell-based, chicken; conditions: H89 10 μM; GnRH1 10 nM, 24 h; N = 4
# Experimental: (§1) As described in our recent studies ([Huang et al., 2014]; [Mo et al., 2015]), anterior pituitaries collected from 1-week-old chicks were sliced and digested by 0.25% trypsin at 37°C for 20 min. The dispersed pituitary cells were cultured at a density of 5 × 10^5 cells/well in Medium 199 supplemented with 15% fetal bovine serum in a Corning Cell BIND 48-well plates (Corning, Tewksbury, MA) at 37°C with 5% CO2. After 24-h culture, the medium was replaced with serum-free M199 medium and the cells were treated with chicken GnRH1/GnRH2 for the duration (12–48 h) or with increasing doses (0.1–100 nM) of each peptide. The total RNA was then extracted from cultured pituitary cells and the expression of CART and β-actin assayed by qPCR.
# (§2) “ND” indicates no statistical difference between the two groups. Each data point represents mean ± SEM of four replicates (N = 4). ^**p < 0.01 vs. control; ^#p < 0.01 vs. GnRH1 treatment (in the absence of drug). […] Total ERK2 in cell lysates was also examined and used as internal controls. Note: only a single band for pERK2 or total ERK2 (42 kDa) was detected in cell lysate, because ERK1 gene is lost in chicken genome ([Gerilechaogetu et al., 2009]). The representative sets of independent experimental duplicates are shown here.
# (§3) “ND” indicates no statistical difference between the two groups. Each data point represents mean ± SEM of four replicates (N = 4). ^**p < 0.01 vs. control. […] The β-actin in cell lysates were also examined and used as internal controls. The representative sets of independent experimental duplicates are shown here.
# [2] = tested on: rat GH3 cells (CART mRNA); design: method as in Barrett et al., 2001; conditions: ref Barrett et al., 2001; cited from earlier work
# [3] = tested on: cultured chick pituitary cells (CART mRNA); test: CART mRNA expression in cultured chick pituitary cells, qPCR; type: cell-based, chicken; conditions: N = 4
# Text: Chicken anterior pituitaries were collected either for cell culture, or for total RNA extraction. Total RNA was extracted from chicken tissues or cultured pituitary cells using RNAzol (Molecular Research Center, Cincinnati, OH) and reversely transcribed using M-MLV reverse transcriptase (TaKaRa). Reverse transcription (RT) samples were then used for quantitative real-time PCR (qPCR) assays to investigate the mRNA expression of target genes, as described in our recent studies ([Cai et al., 2015]; [Mo et al., 2015]).
# as §1
# The data were analyzed by the Student’s t-test (between two groups) or by one-way ANOVA followed by the Dunnett test in GraphPad Prism 5 (GraphPad Software, San Diego, CA). To validate our results, all experiments were repeated at least three times.
# The mRNA levels of CART were normalized by β-actin and expressed as the percentage of respective controls. Each value represents the mean ± SEM of four replicates (N = 4). ^*p < 0.05, ^**p < 0.01 vs. respective control. (E) RT-PCR detection of GnRHR2 expression in cultured chick pituitary cells (three replicates). RT was performed in the presence (+) or absence (−) of reverse transcriptase. Parallel PCR of β-actin was performed to serve as an internal control.
# [4] = tested on: ovine pars tuberalis cells (CART mRNA); design: method as in Barrett et al., 2001; conditions: ref Barrett et al., 2001; cited from earlier work
# [5] = tested on: cultured chick pituitary cells (CART mRNA); design: method as in Mo et al., 2015; conditions: chickens; ref Mo et al., 2015; cited from earlier work
# [6] = tested on: rats (plasma CART); design: method as in Stanley et al., 2004; conditions: intraperitoneal administration, ref Stanley et al., 2004; cited from earlier work
# [7] = tested on: chicken GnRHR1; test: pGL3-NFAT-RE-luciferase reporter, calcium signaling pathway, CHO cells expressing chicken GnRHR1; type: cell-based; conditions: four replicates
# Text: (§4) Based on the reported cDNA sequences of chicken GnRHR1 and GnRHR2 (accession nos.: NM_204653; NM_001012609) ([Sun et al., 2001]; [Shimizu and Bedecarrats, 2006]), gene-specific primers were used to amplify the open reading frame from adult chicken anterior pituitaries using high-fidelity Taq DNA polymerase (TOYOBO, Japan). The amplified PCR products were cloned into the pcDNA3.1 (+) expression vector (Invitrogen) and sequenced. According to our previously established methods, the signaling property of each receptor was examined in Chinese hamster ovary (CHO) cells using pGL3-NFAT-RE-luciferase ([Wang et al., 2012]), pGL4-SRE-luciferase ([Mo et al., 2015]), and pGL3-CRE-luciferase reporter systems ([Wang et al., 2007]).
# (§5) Although two GnRH receptors (GnRHR1 and GnRHR2) have been identified in chickens ([Sun et al., 2001]; [Shimizu and Bedecarrats, 2006]; [Joseph et al., 2009]), their downstream signaling pathways have not been fully characterized.
# (§6) Figure 5 Activation of chicken GnRHR1 or GnRHR2 expressed in CHO cells by chicken GnRH1 or GnRH2, monitored by pGL3-NFAT-RE-luciferase (A,D), pGL4-SRE-luciferase (B,E), and pGL3-CRE-luciferease (C,F) reporter systems. […] Each data point represents mean ± SEM of four replicates (N = 4).
# [8] = tested on: chicken GnRHR2; test: pGL3-NFAT-RE-luciferase reporter, calcium signaling pathway, CHO cells expressing chicken GnRHR2; type: cell-based; conditions: four replicates
# Text: as §4, §5, §6
# [9] = tested on: chicken GnRHR1; test: pGL4-SRE-luciferase reporter, MAPK/ERK signaling pathway, CHO cells expressing chicken GnRHR1; type: cell-based; conditions: four replicates
# Text: as §4, §5, §6
# [10] = tested on: chicken GnRHR2; test: pGL4-SRE-luciferase reporter, MAPK/ERK signaling pathway, CHO cells expressing chicken GnRHR2; type: cell-based; conditions: four replicates
# Text: as §4, §5, §6
# [11] = tested on: chicken GnRHR1; test: pGL3-CRE-luciferase reporter, cAMP/PKA signaling pathway, CHO cells expressing chicken GnRHR1; type: cell-based; conditions: four replicates
# Text: as §4, §5, §6
# [12] = tested on: chicken GnRHR2; test: pGL3-CRE-luciferase reporter, cAMP/PKA signaling pathway, CHO cells expressing chicken GnRHR2; type: cell-based; conditions: four replicates
# Text: as §4, §5, §6
# [13] = tested on: chicken GnRHR1; test: three cell-based luciferase reporter assays, GnRHR1 (qualitative); conditions: GnRHR1, CHO cells, calcium, MAPK/ERK and cAMP/PKA reporters
# Text: as §4, §5, §6
# [14] = tested on: chicken GnRHR2; test: three cell-based luciferase reporter assays, GnRHR2 (qualitative); conditions: GnRHR2, CHO cells, calcium, MAPK/ERK and cAMP/PKA reporters
# Text: as §4, §5, §6
# [15] = tested on: intact anterior pituitaries (CART secretion); test: CART peptide secretion from intact anterior pituitaries incubated in vitro, Western blot; type: cell-based, chicken; conditions: 4 h, intact chick pituitaries, N = 3
# Experimental: As described in our recent study ([Huang et al., 2014]), the intact anterior pituitaries collected from 1-week-old male chicks were washed with PBS and placed on a 48-well plate (NUNC) supplemented with 400 μl serum-free Medium 199 (Invitrogen). After 1-h incubation at 37°C, the medium was replaced by 300 μl serum-free Medium 199 containing different concentrations of chicken GnRH1 or GnRH2 (0.1–100 nM) and incubated for 4 h. […] Parallel blotting of β-actin and CART in pituitary tissue lysates was also conducted.
# The intracellular CART (iCART) and β-actin levels in the pituitary tissue lysate were also examined in parallel. […] Each data point represents mean ± SEM of three replicates (N = 3). ^*p < 0.05; ^**p < 0.01 vs. respective control. […] One representative set of Western blot is shown at the top of each graph.
# [16] = tested on: chicks (plasma CART); test: plasma CART levels after intraperitoneal administration in chicks, ELISA; type: in vivo, chicken; conditions: 5 μg/chick, 30 min, male chicks
# Experimental: The levels of CART peptide in chicken plasma was then determined by competitive ELISA assay.
# Each data point represents mean ± SEM of seven 19-day-old male individuals (N = 7). ^*p < 0.05 vs. saline (control).
# [17] = tested on: ERK2 phosphorylation; test: ERK2 phosphorylation in cultured chick pituitary cells, Western blot; type: cell-based, chicken; conditions: 10 nM, 10 min, duplicates
# Text: as §2
# [18] = tested on: CREB phosphorylation; test: CREB phosphorylation in cultured chick pituitary cells, Western blot; type: cell-based, chicken; conditions: 10 nM, 5 min, duplicates
# Text: as §3
# [19] = tested on: rat pituitary (CART secretion); design: method as in Kappeler et al., 2006; conditions: rat pituitary upon perfusion; ref Kappeler et al., 2006; cited from earlier work
compound,measurement,setting,value
O=S(=O)(NCCNC/C=C/c1ccc(Br)cc1)c1cccc2cnccc12 [H89],effect on GnRH1-induced CART mRNA expression,[1],could abolish GnRH1-induced CART expression
same,effect on AC activator- or cAMP analog-stimulated CART mRNA levels,[2],abolished
"CCCCCCCCCCCCCC(=O)O[C@@H]1[C@@H](C)[C@@]2(O)[C@@H](C=C(CO)C[C@]3(O)C(=O)C(C)=C[C@@H]23)[C@@H]2C(C)(C)[C@]12OC(C)=O [PMA, phorbol-12-myristate-13-acetate, reference compound]",effect on CART mRNA expression,"[3]; PMA 100 nM, 48 h",could mimic GnRH1 action
same,CART mRNA expression,[4],enhances CART mRNA expression
"CRH: corticotropin-releasing hormone, hypothalamic factor (literature results only)",potency as stimulator of pituitary CART secretion and expression,[5],potent stimulator of pituitary CART secretion and expression
same,plasma CART levels,[6],increase plasma CART levels in rats
"GnRH1: chicken gonadotropin-releasing hormone 1, synthesized using solid-phase Fmoc chemistry; an ortholog of mammalian GnRH (QHWSYGLQPG; ends and bridges not checked; UniProt P37042 24-33, looked up)",EC50,[7],11.3 nM
same,EC50,[8],1.54 nM
same,EC50,[9],270 nM
same,EC50,[10],29.9 nM
same,EC50,[11],69.3 nM
same,EC50,[12],2.15 nM
same,activation of GnRHR1 (luciferase activity),[13],stimulate the luciferase activities dose-dependently
same,activation of GnRHR2 (luciferase activity),[14],stimulate the luciferase activities dose-dependently; also recorded: potently activated by both GnRH1 and GnRH2
same,secretion of mature CART peptide,[15]; 0–100 nM,potently stimulated the secretion of mature CART peptide
same,"minimal effective concentration, CART secretion",[15],1 nM
same,increase in plasma CART levels vs saline,"[16]; N = 7, p < 0.05",two-fold
same,plasma CART level,"[16]; N = 7, saline control 1.3 ng/ml, p < 0.05",2.7 ng/mL
same,"effect on CART mRNA expression, dose dependence","[3]; 0–100 nM, 48 h, qPCR",stimulate CART expression dose-dependently
same,treatment time of maximal effect on CART mRNA expression,"[3]; 10 nM, qPCR",48 h
same,effect on CART mRNA expression,"[3]; 10 nM, time course (12–48 h), qPCR",induce CART expression in a time-dependent manner
same,"minimal effective dose, CART mRNA expression","[3]; 48 h, qPCR",1 nM
same,ERK2 phosphorylation,[17],could enhance ERK2 phosphorylation
same,CREB phosphorylation,[18],could enhance CREB phosphorylation
"GnRH: GnRH perfused on rat pituitary in a previous study (form not specified) (QHWSYGLRPG; ends and bridges not checked; UniProt P07490 24-33, looked up)",CART secretion,[19],CART secretion is induced
